Measurements reported in US7888357B2, “Anti-inflammatory and protein kinase inhibitor compositions and related methods for downregulation of detrimental cellular responses and inhibition of cell death” (Northwestern University, priority 2001, dated 2011).

Key:
[1] = test system: BV-2 microglial cells; assay: Cell-based screen for inhibition of LPS-stimulated NO release (Griess assay); parameters: species or system murine; settings: LPS-stimulated BV-2 cells, 24 hr, nitrite in conditioned media
Experimental: FIG. 1. Cell-based screen for inhibition of LPS-stimulated NO release. […] Inhibition is expressed as percent control, where the control is the NO accumulation from cells stimulated with LPS alone.
The rationale for using BV-2 cells in high throughput screening was the paucity of well-characterized human microglial cell lines, and the relevant activation responses and signaling pathways reflect those seen in human and rodent primary microglial cultures. Compounds were tested for their effects on NO accumulation in conditioned media of LPS-stimulated BV-2 cells by measurement of nitrite production by the Griess assay as a read-out for iNOS activity, as described previously. Stock solutions of compounds were prepared in dimethylsulfoxide (DMSO) or in water. When stock solutions were prepared in DMSO, control wells contained the same final concentration of DMSO as the compound-containing wells. […] Solutions of compounds for cell treatments were diluted to a 10× final concentration by dilution of stock solutions in αMEM media. The commercially available drugs tested were: compound 5 (KN93 from Alexis); compound 6 (pyrrolidinedithiocarbamate or PDTC from Sigma), compound 7 (SB203580 from Alexis Corporation), compound 8 (PD98059 from Alexis Corporation), and compound 9 (UO126 from Cell Signaling). […] Respectively, Western blots of cell lysates were done with the following antibodies: monoclonal anti-iNOS (1:1000 dilution, Transduction Labs); polyclonal anti-rat IL-1β (1:1000 dilution, R&D Systems, Inc.); monoclonal anti-glial fibrillary acidic protein (GFAP) (1:[…] dilution, Sigma); polyclonal anti-rat alioE (1:15,000 dilution) prepared as described; polyclonal anti-COX-2 (1:500 dilution) and monoclonal anti-phosphoATF2 (1:1000 dilution) from Santa Cruz Biotechnology, polyclonal anti-phosphoCREB (1:1000 dilution), and polyclonal anti-phosphop38 MAPK (1:1000 dilution). Reconstituted enzyme assays were done as described s. The sources of protein kinases were: bovine heart PKA from Promega, rat brain PKC from Calbiochem, rat CaMKII from New England Biolabs, chicken gizzard MLCK prepared as described, and a p38 MAP kinase kit containing recombinant Xenopus p38-MAPK and its human substrate from Upstate Biotechnology. The catalytic domains of these protein kinases retain a high level of amino acid sequence identity across mammalian species, consistent with the lack of documented major differences across species for the in vitro catalytic activity of a given kinase.
FIG. 4. Cell-based screen for functional effects of synthetic compounds on LPS-stimulated NO release from BV-2 cells. BV-2 cells were incubated for 24 hr with LPS (500 ng/ml) in the presence of increasing concentrations of: A) MW01-070C; B) MW01-026Z; C) MW01-118Z; D) MW01-119Z; E) MW01-051Z; F) MW01-160Z; G) MW01-196A; H) MW01-024Z; I) SB203580; J) PDTC; K) U0126; L) PD98059. The nitrite levels in conditioned media were determined. Inhibition is expressed as percentage of control values, where the control is the nitrite level in cells stimulated with LPS alone.
Compounds were tested for their effects on NO production by LPS-stimulated BV-2 cells as previously described [Mirzoeva, S., Koppal, T., Petrova, T. V., Lukas, T. J., Watterson, D. M., and Van Eldik, L. J. (1999) Brain Res. 844, 126-134]. The levels of nitrite, a stable NO metabolite, in conditioned media were determined by the Griess assay as previously described [Hu, J., Castets, F., Guevara, J. L., and Van Eldik, L. J. (1996) J. Biol. Chem. 271, 2543-2547]. Stock solutions of compounds were prepared in DMSO or in water. When stock solutions were prepared in DMSO, control wells contained the same final concentration of DMSO as the compound-containing wells. Solutions of compounds for cell treatments were diluted to a 10× final concentration by dilution of stock solutions of drugs in αMEM media.

[2] = target: death associated protein kinase (DAPK) (Homo sapiens, UniProt P53355); assay: Enzyme assay, DAPK; format: biochemical; settings: Table 6; read-out: Inhibition DAPK
Experimental: Therefore, compound MW01-026Z was selected as a starting point for variations on component A (Table 6). […] However, none of the A variations appeared to improve the activity and selectivity profile of CompoundMW01-026Z. (For purposes of illustration, only, component G was maintained throughout as an acyl moiety, while component R2 was varied as shown. All such compositions are available using the synthetic techniques described herein. Enzyme assays were conducted per procedures described elsewhere herein.) A more comprehensive structure activity relationship is summarized in Table 7, below.
With reference to the compositions of Table 3 and the enzyme assay techniques described elsewhere herein, Table 7 provides structural activity relationships observed, in accordance with this invention.

[3] = target: T1, myosin light chain kinase (MLCK) (Gallus gallus, UniProt P11799); assay: Reconstituted enzyme assay, MLCK; format: biochemical, chicken; settings: Table 6; read-out: Inhibition MLCK
T1 construct: chicken gizzard MLCK prepared as described; from tissue; host or cells: chicken gizzard
Experimental: (§1) [table] […] The rationale for using BV-2 cells in high throughput screening was the paucity of well-characterized human microglial cell lines, and the relevant activation responses and signaling pathways reflect those seen in human and rodent primary microglial cultures. Compounds were tested for their effects on NO accumulation in conditioned media of LPS-stimulated BV-2 cells by measurement of nitrite production by the Griess assay as a read-out for iNOS activity, as described previously. Stock solutions of compounds were prepared in dimethylsulfoxide (DMSO) or in water. When stock solutions were prepared in DMSO, control wells contained the same final concentration of DMSO as the compound-containing wells. […] Solutions of compounds for cell treatments were diluted to a 10× final concentration by dilution of stock solutions in αMEM media. […] Reconstituted enzyme assays were done as described s. The sources of protein kinases were: bovine heart PKA from Promega, rat brain PKC from Calbiochem, rat CaMKII from New England Biolabs, chicken gizzard MLCK prepared as described, and a p38 MAP kinase kit containing recombinant Xenopus p38-MAPK and its human substrate from Upstate Biotechnology. The catalytic domains of these protein kinases retain a high level of amino acid sequence identity across mammalian species, consistent with the lack of documented major differences across species for the in vitro catalytic activity of a given kinase.

[4] = target: T2, CaMKII (Rattus norvegicus, UniProt P11275); assay: Reconstituted enzyme assay, CaMKII; format: biochemical; settings: Table 6; read-out: Inhibition CAMKII
T2 construct: purchased New England Biolabs
Experimental: as §1

[5] = test system: rat astrocytes; assay: Western blot of glial activation responses in rat astrocyte cultures; format: cell-based; settings: LPS-stimulated rat astrocytes, 24 hr, Western blot
Experimental: FIG. 2. Selective effects of compound 1 (MW01-070C) on glial activation responses and gene-regulating protein kinase pathways. BV-2 cells and rat astrocytes were treated with control buffer (C) or stimulated with LPS or Aβ1-42 peptide in the presence or absence of compound 1, and cell lysates were analyzed by Western blots. (A) Astrocytes treated with LPS and compound 1 show concentration-dependent inhibition of iNOS and IL-1β production but not GFAP. (B) Astrocytes treated with A β1-42 and compound 1 (10 μM) show inhibition of iNOS and IL-1β but not apoE and COX-2. (C) BV-2 cells treated with LPS and compound 1 (10 μM) show inhibition of phosphorylated (p-) CREB but not p-p38 and p-ATF2, as assayed with antibodies that are specific for the phosphorylated forms of the proteins. Data are expressed as percent control (mean±SD; n=3 determinations).
The rationale for using BV-2 cells in high throughput screening was the paucity of well-characterized human microglial cell lines, and the relevant activation responses and signaling pathways reflect those seen in human and rodent primary microglial cultures. Compounds were tested for their effects on NO accumulation in conditioned media of LPS-stimulated BV-2 cells by measurement of nitrite production by the Griess assay as a read-out for iNOS activity, as described previously. Stock solutions of compounds were prepared in dimethylsulfoxide (DMSO) or in water. When stock solutions were prepared in DMSO, control wells contained the same final concentration of DMSO as the compound-containing wells. […] Solutions of compounds for cell treatments were diluted to a 10× final concentration by dilution of stock solutions in αMEM media. The commercially available drugs tested were: compound 5 (KN93 from Alexis); compound 6 (pyrrolidinedithiocarbamate or PDTC from Sigma), compound 7 (SB203580 from Alexis Corporation), compound 8 (PD98059 from Alexis Corporation), and compound 9 (UO126 from Cell Signaling). SB203580, U0126 and PD98059, PDTC, and KN93 are used as pathway-selective inhibitors of p38 MAPK, MEK1/2, NFκB, and CaMKII signaling pathways. Respectively, Western blots of cell lysates were done with the following antibodies: monoclonal anti-iNOS (1:1000 dilution, Transduction Labs); polyclonal anti-rat IL-1β (1:1000 dilution, R&D Systems, Inc.); monoclonal anti-glial fibrillary acidic protein (GFAP) (1:[…] dilution, Sigma); polyclonal anti-rat alioE (1:15,000 dilution) prepared as described; polyclonal anti-COX-2 (1:500 dilution) and monoclonal anti-phosphoATF2 (1:1000 dilution) from Santa Cruz Biotechnology, polyclonal anti-phosphoCREB (1:1000 dilution), and polyclonal anti-phosphop38 MAPK (1:1000 dilution). Reconstituted enzyme assays were done as described s. The sources of protein kinases were: bovine heart PKA from Promega, rat brain PKC from Calbiochem, rat CaMKII from New England Biolabs, chicken gizzard MLCK prepared as described, and a p38 MAP kinase kit containing recombinant Xenopus p38-MAPK and its human substrate from Upstate Biotechnology. The catalytic domains of these protein kinases retain a high level of amino acid sequence identity across mammalian species, consistent with the lack of documented major differences across species for the in vitro catalytic activity of a given kinase.
FIG. 5. Effects of two compounds on LPS-stimulated INOS and IL-1β production in rat astrocyte cultures. Astrocyte cultures were incubated for 24 hr with control buffer (C), LPS (100 ng/ml) alone, or LPS in the presence of increasing concentrations (0.1, 0.3, 1, 3, 10 μM) of MW01-070C (panel A) or MW01-196A (panel B). The levels of iNOS, proIL-1β, and GFAP were determined by Western blot of cell lysates.
FIG. 6. Effects of MW01-070C on astrocytes treated with various activating stimuli, and analysis of multiple activation responses. Astrocyte cultures were stimulated for 12 hr with Aβ (10 μM), S100B (0.5 μM), or LPS (100 ng/ml) in the absence (−) or presence (+) of MW01-070C (10 μM). […]

death associated protein kinase (DAPK), sequence (P53355 whole entry, species assumed): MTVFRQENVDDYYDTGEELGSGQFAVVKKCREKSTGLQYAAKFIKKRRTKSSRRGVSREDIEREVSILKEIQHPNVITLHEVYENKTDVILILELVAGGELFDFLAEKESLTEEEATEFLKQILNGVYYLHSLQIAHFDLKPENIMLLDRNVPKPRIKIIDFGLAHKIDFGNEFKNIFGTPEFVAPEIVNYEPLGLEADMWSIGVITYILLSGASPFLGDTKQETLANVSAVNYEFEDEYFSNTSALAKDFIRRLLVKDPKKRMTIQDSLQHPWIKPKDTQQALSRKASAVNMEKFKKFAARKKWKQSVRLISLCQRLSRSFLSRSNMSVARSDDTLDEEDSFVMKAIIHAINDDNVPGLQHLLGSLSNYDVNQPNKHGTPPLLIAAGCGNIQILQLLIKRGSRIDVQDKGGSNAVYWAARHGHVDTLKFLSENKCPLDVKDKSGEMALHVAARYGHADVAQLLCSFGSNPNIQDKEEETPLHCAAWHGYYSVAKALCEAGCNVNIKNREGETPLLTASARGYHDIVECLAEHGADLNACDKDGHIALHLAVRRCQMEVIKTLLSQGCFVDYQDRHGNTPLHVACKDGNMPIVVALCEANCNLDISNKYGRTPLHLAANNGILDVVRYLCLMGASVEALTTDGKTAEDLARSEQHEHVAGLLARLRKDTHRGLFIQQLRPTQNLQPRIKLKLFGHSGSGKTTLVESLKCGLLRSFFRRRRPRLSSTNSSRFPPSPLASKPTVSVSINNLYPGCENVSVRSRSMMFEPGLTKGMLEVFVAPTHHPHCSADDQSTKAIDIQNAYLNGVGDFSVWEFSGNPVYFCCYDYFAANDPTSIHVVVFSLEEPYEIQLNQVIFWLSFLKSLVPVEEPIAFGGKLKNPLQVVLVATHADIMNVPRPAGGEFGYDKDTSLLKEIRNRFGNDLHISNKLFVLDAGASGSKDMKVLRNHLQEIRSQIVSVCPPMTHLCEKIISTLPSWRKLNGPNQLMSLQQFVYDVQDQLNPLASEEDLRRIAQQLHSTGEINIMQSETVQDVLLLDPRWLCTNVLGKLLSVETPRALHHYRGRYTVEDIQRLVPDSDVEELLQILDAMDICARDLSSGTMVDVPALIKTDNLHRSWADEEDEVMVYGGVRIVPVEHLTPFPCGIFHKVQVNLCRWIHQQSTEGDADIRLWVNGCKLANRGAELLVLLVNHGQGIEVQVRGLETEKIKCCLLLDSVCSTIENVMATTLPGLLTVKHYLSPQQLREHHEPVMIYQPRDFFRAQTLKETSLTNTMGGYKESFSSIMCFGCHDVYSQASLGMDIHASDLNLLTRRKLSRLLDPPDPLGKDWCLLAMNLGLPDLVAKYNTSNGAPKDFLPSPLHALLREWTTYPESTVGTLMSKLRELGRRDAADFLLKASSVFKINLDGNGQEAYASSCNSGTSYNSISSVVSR
T2 sequence (P11275 1-325 limits assumed): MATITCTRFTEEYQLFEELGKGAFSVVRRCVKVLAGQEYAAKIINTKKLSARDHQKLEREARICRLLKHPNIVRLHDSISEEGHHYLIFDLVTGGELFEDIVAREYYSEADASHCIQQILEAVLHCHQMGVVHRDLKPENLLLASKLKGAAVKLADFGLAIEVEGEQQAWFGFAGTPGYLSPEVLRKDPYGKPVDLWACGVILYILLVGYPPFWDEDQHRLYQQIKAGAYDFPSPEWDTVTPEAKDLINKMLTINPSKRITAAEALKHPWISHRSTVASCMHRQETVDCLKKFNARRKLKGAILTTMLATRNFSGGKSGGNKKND
T1 sequence (P11799 935-1906): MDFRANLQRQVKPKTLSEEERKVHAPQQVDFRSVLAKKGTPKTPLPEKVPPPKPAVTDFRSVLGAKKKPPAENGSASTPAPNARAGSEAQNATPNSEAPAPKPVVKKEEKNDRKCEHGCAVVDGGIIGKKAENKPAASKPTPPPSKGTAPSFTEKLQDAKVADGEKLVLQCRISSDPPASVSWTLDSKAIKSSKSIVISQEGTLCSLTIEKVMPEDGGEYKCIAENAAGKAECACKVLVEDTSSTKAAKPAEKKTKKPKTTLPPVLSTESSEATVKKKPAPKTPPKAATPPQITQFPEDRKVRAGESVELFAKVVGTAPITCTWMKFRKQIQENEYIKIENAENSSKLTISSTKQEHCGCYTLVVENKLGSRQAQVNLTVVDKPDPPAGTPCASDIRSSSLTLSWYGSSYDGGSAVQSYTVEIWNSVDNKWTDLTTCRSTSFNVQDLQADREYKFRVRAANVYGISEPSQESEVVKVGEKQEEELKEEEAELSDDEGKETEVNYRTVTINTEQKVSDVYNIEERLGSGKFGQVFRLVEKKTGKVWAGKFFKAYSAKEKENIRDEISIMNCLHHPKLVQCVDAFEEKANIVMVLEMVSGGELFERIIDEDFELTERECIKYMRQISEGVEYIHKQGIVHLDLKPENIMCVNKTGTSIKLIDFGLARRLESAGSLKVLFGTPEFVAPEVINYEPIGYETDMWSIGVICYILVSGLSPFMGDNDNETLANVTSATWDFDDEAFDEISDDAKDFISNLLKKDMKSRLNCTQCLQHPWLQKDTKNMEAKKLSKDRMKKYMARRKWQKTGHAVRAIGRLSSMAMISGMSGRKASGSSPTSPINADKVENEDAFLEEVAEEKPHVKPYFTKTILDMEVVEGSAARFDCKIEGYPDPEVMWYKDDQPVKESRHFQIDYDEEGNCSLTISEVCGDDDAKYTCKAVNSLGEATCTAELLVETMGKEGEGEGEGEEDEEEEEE

Row | IC50 [3] [µM] | IC50 [4] [µM] | Compound | inhibition of NO accumulation by activated glia [1] | IC50 [2] [µM] | other results
1 |  |  | C[S+]([O-])c1ccc(-c2nc(-c3ccncc3)c(-c3ccc(F)cc3)[nH]2)cc1 (centres unmarked) [Compound 7, SB203580, reference compound] | less effective |  | 
2 |  |  | COc1cccc(-c2cc(=O)c3ccccc3o2)c1N [Compound 8, PD98059, reference compound] | less effective |  | 
3 |  |  | N#CC(=C(/N)Sc1ccccc1N)/C(C#N)=C(\N)Sc1ccccc1N [Compound 9, U0126, reference compound] | less effective |  | 
4 | < 20 | 50 to 100 | Cc1cc(NC(=O)CCCCCCCCCCn2nc3c(cc2=N)CCc2ccccc2-3)nnc1-c1ccccc1 [MW01-008B] |  | 50 to 100 | 
5 | > 100 | > 100 | Cc1ccc(NC(=O)CCCCCCCCCCn2nc3c(cc2=N)CCc2ccccc2-3)nn1 [MW01-020B] |  | > 100 | 
6 |  |  | O=C(CCCCCCCCCCN1CCN(c2ncccn2)CC1)N1CCN(c2ncccn2)CC1 [MW01-024Z] | does not have any greater cellular activity than commercially available drugs and inhibitors |  | 
7 | < 20 | > 100 | Cc1ccc(=N)n(CCCCCCCCCCC(=O)Nc2ccc(-c3ccccc3)nn2)n1 [MW01-031Z] |  | > 100 | 
8 | > 100 |  | O=C(CCCCCCCCCNc1ccc(-c2ccccc2)nn1)Nc1ccc(-c2ccccc2)nn1 [MW01-038B] |  | > 100 | 
9 |  |  | N=c1cc2c(nn1CCCCCCCC(=O)N1CCN(c3ncccn3)CC1)-c1ccccc1CC2 [MW01-051Z] | significant NO inhibition activity |  | 
10 | > 100 |  | N=c1ccc(-c2ccccc2)nn1CCCCCCCC(=O)Nc1ccc(-c2ccccc2)nn1 [MW01-086B] |  | > 100 | 
11 | 20 to 50 | > 100 | N=c1cc2c(nn1CCCCCCCC(=O)Nc1ccc(-c3ccccc3)nn1)-c1ccccc1CC2 [MW01-097B] |  | > 100 | 
12 | 20 to 50 | > 100 | Cc1cc(=N)n(CCCCCCCCCCC(=O)Nc2ccc(-c3ccccc3)nn2)nc1-c1ccccc1 [MW01-103B] |  | 50 to 100 | 
13 |  |  | N=c1cc2c(nn1CCCCCCCCCCC(=O)Nc1nnc(-c3ccccc3)c3ccccc13)-c1ccccc1CC2 [MW01-119Z] | better efficacy than established anti-inflammatory compounds like SB203580 |  | 
14 |  |  | N=c1cc2c(nn1CCCCC(=O)N1CCN(c3ncccn3)CC1)-c1ccccc1CC2 [MW01-160Z] | no more active than inhibitors of the NFκB pathway (PDTC) |  | 
15 |  |  | Cc1ccn(CCCCCCCCCCC(=O)N2CCN(c3ncccn3)CC2)c(=N)c1 [MW01-196-AS] | little activity |  | IL-1β production [5]: does not show dose dependent inhibition; iNOS production [5]: does not show dose dependent inhibition
